In one test the test system is Saccharomyces cerevesiae. The test can be described thus: Perfume glycoside decomposition ability test of bread yeast. The format is cell-based. As to conditions: glycoside 0.5% by weight in 15% sucrose solution, yeast 7% by weight, 4° C. How it is done: Saccharomyces cerevesiae which had been cultured at 30° C. for 1 hour was added, at a concentration of 7% by weight, to a 15% by weight sucrose aqueous solution each containing the glycosides prepared in Synthesis Examples 2, 4 or 5 in an amount of 0.5% by weight. This was cultured at 4° C. while shaked. After 15 minutes and 4 hours culture, the culture liquid was sampled and centrifuged to precipitate the yeast. The supernatant was then extracted with the same volume of diethyl ether as that of the supernatant. The structure of the aroma components was identified on a GC-MS. The amount of the component released was determined on a GC with a detector of FID.

Test [1] has as its system Coryneform bacteria (Corynebacterium). The experiment in a line: Glycoside decomposition ability test of Coryneform bacteria. The format is cell-based. Particulars: for Detected component and its amount: 2-phenylethyl alcohol: 32° C., glycoside 0.5% by weight in SCD liquid medium, GC-FID. How it is done: Each of the glycosides synthesized in Synthesis Examples 1 to 3 was added to a soybean casein digest liquid medium (SCD liquid medium) at an amount of 0.5% by weight based on the medium. To the liquid medium was inoculated 2% of bacterial liquid of Coryneform bacteria which had been precultured in an SCD liquid medium. This was cultured at 32° C. in a static state. The culture liquid was sampled after 2 days and 4 days culture and sterizing treatment was conducted on a conventional manner. After the sterizing treatment, aroma components were extracted with the same volume of diethyl ether as that of the culture liquid sampled. The structure of the components was identified on a GC-MS. The amount of the components released was determined on a GC with a detector of FID.

Regarding `OC[C@H]1O[C@H](OCCc2ccccc2)[C@H](O)[C@@H](O)[C@@H]1O` [2-phenylethylglucoside (α-form), 2-Phenylethyl Glucoside (α-form)], the “Amount of aroma components” value in the test with Saccharomyces cerevesiae (after 15 minutes culture) worked out at 0.4 peak area × 10^5; with Saccharomyces cerevesiae (after 4 hours culture) it was 1.6 peak area × 10^5. For the same molecule, the “Detected component and its amount: 2-phenylethyl alcohol” value came out at 0.01 peak area × 10^6 in test [1] (after 2 days culture) and 0.3 peak area × 10^6 in test [1] (after 4 days culture).
Regarding `OC[C@H]1O[C@@H](OCCc2ccccc2)[C@H](O)[C@@H](O)[C@@H]1O` [2-phenylethylglucoside (β-form), 2-Phenylethyl Glucoside (βform)], the “Detected component and its amount: 2-phenylethyl alcohol” value in test [1] (after 2 days culture) is 1.1 peak area × 10^6; in test [1] (after 4 days culture), 8.0 peak area × 10^6.
Regarding `CC(C)=CCCC(C)CCO[C@@H]1O[C@H](CO)[C@@H](O)[C@H](O)[C@H]1O` (stereo partly drawn) [citronellyl glucoside (β-form), Citronellyl Glucoside (β-form)], the “Amount of aroma components” value is 2.6 peak area × 10^5 in the test on Saccharomyces cerevesiae (after 15 minutes culture) and 8.8 peak area × 10^5 in the test on Saccharomyces cerevesiae (after 4 hours culture).
For `C=CCc1ccc(O[C@@H]2O[C@H](CO)[C@@H](O)[C@H](O)[C@H]2O)c(OC)c1` [eugenyl glucoside (β-form), Eugenyl Glucoside (β-form)] the same measures were 0.5 peak area × 10^5 and 1.3 peak area × 10^5.
Regarding `COc1cc(C=O)ccc1O[C@@H]1O[C@H](CO)[C@@H](O)[C@H](O)[C@H]1O` [glucovanillin (β-form), Glucovanillin (β-form)], in test [1] (after 2 days culture), the “Detected component and its amount: vanillin” value is 0.01 peak area × 10^6; the “Detected component and its amount: vanillyl alcohol” value was 0 peak area × 10^6. In addition, in test [1] (after 4 days culture), the “Detected component and its amount: vanillin” value is given as 1.75 peak area × 10^6; the “Detected component and its amount: vanillyl alcohol” value amounted to 0.2 peak area × 10^6.

These data come from US6576247B1, “Sustained-release aromatic and method of detecting micro-organism by using the same” (Kanebo Ltd. and T. Hasegawa Co. Ltd., priority 1994, dated 2003).
